pEC50: −log10 of the molar value.
Assays:
[1] = target: human CB2 receptor (hCB2) (Homo sapiens, UniProt P34972); test: cAMP assay (LANCE TR-FRET) in CHO-K1 cells expressing hCB2; format: cell-based; conditions: for Emax: CHO-K1, intrinsic activity: percent maximal activation compared to full activation by CP55,940 (1 μM = 100%), read-out: hCB2 % Max Range; for pEC50: CHO-K1 cells stably expressing hCB2, intracellular cAMP, NKH-477 prestimulated, average of at least three replicates
Procedure: (§1) The ability of compounds to act as agonists or inverse agonists at human CB2 and CB1 receptors (hCB2, hCB1, respectively) was determined by measuring changes in intracellular cAMP levels. Chinese Hamster Ovary (CHO-K1) cell lines stably expressing hCB2 (Genebank: X74328) or hCB1 (Genebank: X54937) were purchased from Euroscreen (Gosselies, Belgium).
(§2) Cell lines were grown in suspension in EX-CELL 302 CHO Serum-free medium (Sigma, catalog #14324C) supplemented with 1% Fetal Bovine Serum, glutamine and with or without non-essential amino-acids under 0.4 mg/mL G418 selection.
(§3) Receptor mediated responses were determined by measuring changes in intracellular cAMP using LANCE cAMP detection kit (catalog #AD0264, PerkinElmer, Wellesley, Mass.) based on time-resolved fluorescence resonance energy transfer (TR-FRET). Changes in cAMP were determined in cells pre-incubated with IBMX (isobutyl methylxanthine) and prestimulated with NKH-477 (a water soluble forskolin derivative, catalog #1603, Tocris, Ellisville, Mo.) to increase basal cAMP levels as detailed below.
(§4) On the day of the experiment, cells were spun at low speed for 5 min at room temperature. The supernatant was removed and cells were resuspended in stimulation buffer (Hanks Buffered Salt Solution/5 mM HEPES, containing 0.5 mM IBMX (catalog #17018, Sigma) and 0.02% BSA (PerkinElmer, catalog #CR84-100)). Cell clumps were removed by filtering through cell strainer 40 μm (BD Falcon, Discovery Labware, Bedford, Mass.) and diluted to 2×10^5 cells/mL. Antibody supplied with the LANCE cAMP immunoassay kit was then added according to the manufacturer's instructions. An aliquot of cells was taken for un-induced controls. To the remaining cells was added NKH-477 (a water soluble forskolin derivative, Tocris catalog #1603) to a final concentration of 2-8 μM. Cells were then incubated for either 25 or 30 min at room temperature prior to adding to Proxiplates containing test compounds (final DMSO concentration was less than 0.5%) with a Multidrop bulk dispenser, followed by a sixty minute incubation at room temperature. The response was stopped by addition of the detection mix supplied with the LANCE kit.
(§5) The reagents were allowed to equilibrate for three hours prior to reading on an Envision multi-mode detector (PerkinElmer). TR-FRET was measured using a 330-380 nm excitation filter, 615 and 665 nm emission filters, dichroic mirror 380 nm and Z=1 mm.
(§6) Cyclic AMP concentrations in each well were back-calculated from a cAMP standard curve run concurrently during each assay. Each plate contained 16 wells of forskolin stimulated cells and 16 wells of forskolin plus CP55,940-treated. CP55,940-treated cells were treated with CP55,940 (Tocris catalog #0949) at 1 μM and the maximal response was used as the full range (100%) standard. WIN55,212 (Tocris catalog #1038) was used as an internal standard. Concentrations of cAMP were expressed as a percent of the difference of these two groups of wells. Concentration-response data including EC50 (the concentration of compound producing 50% of the maximal response) and intrinsic activity (the percent maximal activation compared to full activation by CP55,940) were determined using a four-parameter non-linear regression algorithm (Xlfit equation 251, IDBS). Assays were performed with at least three replicates per compound and averaged results for the several compounds of the invention are shown in Table I.

[2] = Body temperature (rectal probe) in writhing assay mice; format: in vivo; conditions: 10 mg/kg subcutaneous; thirty minutes after dosing
Procedure: Male ICR mice, 20-40 grams in weight, served as experimental subjects. To determine the activity and potency of test compounds, mice were weighed and then injected with different doses of the compound solution or vehicle subcutaneously in the back of the neck and then returned to their home cages. Thirty minutes later, body temperatures were obtained using a digital rectal probe and then mice were immediately injected with 10 ml/kg of a 0.6% (v/v) acetic acid solution into the right lower quadrant of the abdomen. Mice were then placed in individual observation chambers (usually a 4000 ml beaker) with a fine layer of bedding at the bottom and the recording of the number of writhes begun immediately. The number of writhes was counted over a 15-min period starting from the time of the acetic acid injection. Raw data were analyzed using a one-way ANOVA followed by Dunnett's post-tests. For dose-response analysis, raw data were converted to % maximum possible effect (% MPE) using the formula: […]

Male ICR mice = test: Acetic acid-induced writhing assay in mice; format: in vivo; conditions: 10 mg/kg subcutaneous, 30 min before 0.6% acetic acid i.p.; writhes counted over 15 min
Description: 12: 525-562; Ramabadran and Bansinath (1986) Pharm. Res. 3: 263-270]. Intraperitoneal administration of dilute acetic acid solution causes a writhing behavior in mice. A writhe is defined as a contraction of the abdominal muscles accompanied by an extension of the forelimbs and elongation of the body. The number of writhes observed in the presence and absence of test compounds is counted to determine the analgesic activity of the compounds.
Male ICR mice, 20-40 grams in weight, served as experimental subjects. To determine the activity and potency of test compounds, mice were weighed and then injected with different doses of the compound solution or vehicle subcutaneously in the back of the neck and then returned to their home cages. Thirty minutes later, body temperatures were obtained using a digital rectal probe and then mice were immediately injected with 10 ml/kg of a 0.6% (v/v) acetic acid solution into the right lower quadrant of the abdomen. Mice were then placed in individual observation chambers (usually a 4000 ml beaker) with a fine layer of bedding at the bottom and the recording of the number of writhes begun immediately. The number of writhes was counted over a 15-min period starting from the time of the acetic acid injection. Raw data were analyzed using a one-way ANOVA followed by Dunnett's post-tests. For dose-response analysis, raw data were converted to % maximum possible effect (% MPE) using the formula:
% MPE=((Wc−Wv)/(0−Wv))*100
where Wc is the number of writhes in compound-treated mice and Wv is the mean number of writhes in vehicle-treated mice. The dose which elicited 50% attenuation of hypersensitivity (ED50) was determined using linear regression analysis. (Tallarida & Murray, 1987).

[3] = target: human CB1 receptor (hCB1) (Homo sapiens, UniProt P21554); test: cAMP assay (LANCE TR-FRET) in CHO-K1 cells expressing hCB1; format: cell-based; conditions: activity on hCB1 represents inverse agonism; for Emax: CHO-K1, percent of range defined by CP55,940 (1 μM = 100%), read-out: hCB1 % Max Range; for pEC50: CHO-K1 cells stably expressing hCB1, intracellular cAMP, NKH-477 prestimulated
Procedure: as §1, §2, §3, §4, §5
as §6, with “IDBS).” for “IDBS). Assays were performed with at least three replicates per compound and averaged results for the several compounds of the invention are shown in Table I.”

Sequence of human CB2 receptor (hCB2) (P34972 whole entry): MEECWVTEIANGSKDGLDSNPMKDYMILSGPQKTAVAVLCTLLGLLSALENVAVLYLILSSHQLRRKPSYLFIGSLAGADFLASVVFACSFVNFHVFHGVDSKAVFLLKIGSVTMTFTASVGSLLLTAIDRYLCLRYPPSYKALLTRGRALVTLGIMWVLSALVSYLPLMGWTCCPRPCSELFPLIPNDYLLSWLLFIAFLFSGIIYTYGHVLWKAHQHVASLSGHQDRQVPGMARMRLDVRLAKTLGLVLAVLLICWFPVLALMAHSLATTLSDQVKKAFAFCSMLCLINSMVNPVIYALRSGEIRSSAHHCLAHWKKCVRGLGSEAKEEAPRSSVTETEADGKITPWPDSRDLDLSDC
Sequence of human CB1 receptor (hCB1) (P21554 whole entry): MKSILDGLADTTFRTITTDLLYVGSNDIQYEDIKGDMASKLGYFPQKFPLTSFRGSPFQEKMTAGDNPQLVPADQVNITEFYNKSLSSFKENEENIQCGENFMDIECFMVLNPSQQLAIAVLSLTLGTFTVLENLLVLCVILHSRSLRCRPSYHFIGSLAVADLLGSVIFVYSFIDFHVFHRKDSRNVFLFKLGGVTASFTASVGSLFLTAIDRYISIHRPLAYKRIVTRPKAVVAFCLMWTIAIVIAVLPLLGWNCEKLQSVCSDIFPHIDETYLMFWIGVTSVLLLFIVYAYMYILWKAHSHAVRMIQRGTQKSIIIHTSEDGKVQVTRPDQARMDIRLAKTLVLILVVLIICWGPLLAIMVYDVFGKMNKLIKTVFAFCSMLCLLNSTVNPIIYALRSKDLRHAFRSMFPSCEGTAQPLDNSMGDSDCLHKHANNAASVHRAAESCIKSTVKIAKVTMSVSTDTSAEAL

Question: With `CC(=O)NS(=O)(=O)c1ccc2c(c1)C1C3CCC(C3)C1C(c1ccccc1)N2` (centres unmarked) [(46), Bridged N-(6-phenyl-5,6,6a,7,8,9,10,10a-octahydrophenanthridin-2-ylsulfonyl)acetamide] as the molecule, how does the Emax [1] read?
Answer: The Emax was 96.9%.

Question: And the pEC50 [1]?
Answer: Its pEC50 is 7.44.

Question: What about the “Δ BODY TEMP. (° C.): observed reduction in body temperature” value (from here on “Δ BODY TEMP. (° C.): observed reduction”) [2] of the same molecule?
Answer: Its value is 0.2 °C.

Question: And the “% MPE” value (Male ICR mice)?
Answer: The value was 41%.

Question: What about the Emax [3] of the same molecule?
Answer: Its Emax is < 40%.

Question: What about the pEC50 [3] of the same molecule?
Answer: Its pEC50 is < 5.00.

Question: For `O=S(=O)(c1ccc2c(c1)C1C3CCC(C3)C1C(c1ccccc1)N2)N1CCCCC1` (centres unmarked) [(3b), Bridged 6-phenyl-2-(piperidin-1-ylsulfonyl)-5,6,6a,7,8,9,10,10a-octahydrophenanthridine], which Emax [1] is on record?
Answer: Its Emax is 101%.

Question: What about the pEC50 [1] of the same molecule?
Answer: Its pEC50 is 9.42.

Question: And the “Δ BODY TEMP. (° C.): observed reduction” value [2]?
Answer: Its value is 0.4 °C.

Question: And the “% MPE” value (Male ICR mice)?
Answer: Its value is 12%.

Question: And the Emax [3]?
Answer: The Emax was < 40%.

Question: And the pEC50 [3]?
Answer: Its pEC50 is < 5.00.

Question: Which Emax [1] does the source give for `O=S(=O)(c1ccc2c(c1)C1C3CCC(C3)C1C(c1ccccc1)N2)N1CCOCC1` (centres unmarked) [(34), Bridged 4-(6-phenyl-5,6,6a,7,8,9,10,10a-octahydrophenanthridin-2-ylsulfonyl)morpholine] here?
Answer: The Emax was 102%.

Question: And the pEC50 [1]?
Answer: Its pEC50 is 9.25.

Question: And the “Δ BODY TEMP. (° C.): observed reduction” value [2]?
Answer: The value was 0.1 °C.

Question: What about the “% MPE” value (Male ICR mice) of the same molecule?
Answer: The value was 23%.

Question: And the Emax [3]?
Answer: Its Emax is < 40%.

Question: And the pEC50 [3]?
Answer: The pEC50 was < 5.00.

Question: With `CN(C)S(=O)(=O)c1ccc2c(c1)C1C3CCC(C3)C1C(c1nccs1)N2` (centres unmarked) [(31), Bridged N,N-dimethyl-6-(thiazol-2-yl)-5,6,6a,7,8,9,10,10a-octahydrophenanthridine-2-sulfonamide] as the molecule, how does the Emax [1] read?
Answer: The Emax was 89.2%.

Question: And the pEC50 [1]?
Answer: Its pEC50 is 6.99.

Question: What about the Emax [3] of the same molecule?
Answer: Its Emax is < 40%.

Question: And the pEC50 [3]?
Answer: The pEC50 was < 5.00.

Question: With `CN(C1CCCCC1)S(=O)(=O)c1ccc2c(c1)C1C3CCC(C3)C1C(c1ccccc1)N2` (centres unmarked) [(38), Bridged N-cyclohexyl-N-methyl-6-phenyl-5,6,6a,7,8,9,10,10a-octahydrophenanthridine-2-sulfonamide] as the molecule, how does the Emax [1] read?
Answer: The Emax was 79.5%.

Question: And the pEC50 [1]?
Answer: Its pEC50 is 8.07.

Question: And the Emax [3]?
Answer: The Emax was < 40%.

Question: What about the pEC50 [3] of the same molecule?
Answer: The pEC50 was < 5.00.

Question: With `CC(=O)Nc1ccc2c(c1)C1C3CCC(C3)C1C(c1c(Cl)cccc1Cl)N2` (centres unmarked) [(24), Bridged N-(6-(2,6-dichlorophenyl)-5,6,6a,7,8,9,10,10a-octahydrophenanthridin-2-yl)acetamide] as the molecule, how does the Emax [1] read?
Answer: The Emax was < 40%.

Question: What about the pEC50 [1] of the same molecule?
Answer: The pEC50 was < 5.00.

Question: And the Emax [3]?
Answer: Its Emax is < 40%.

Question: And the pEC50 [3]?
Answer: The pEC50 was < 5.00.

Question: Which Emax [1] does the source give for `CCCNC(=O)Nc1ccc2c(c1)C1C3CCC(C3)C1C(c1ccccc1)N2` (centres unmarked) [Compound (5d), Bridged 1-(6-phenyl-5,6,6a,7,8,9,10,10a-octahydrophenanthridin-2-yl)-3-propylurea] here?
Answer: Its Emax is 73%.

Question: And the pEC50 [1]?
Answer: Its pEC50 is 6.54.

Question: What about the Emax [3] of the same molecule?
Answer: The Emax was 46%.

Question: And the pEC50 [3]?
Answer: Its pEC50 is 5.67.

Question: With `Cc1nc(-c2ccc3c(c2)C2C4CCC(C4)C2C(c2ccccc2)N3)cs1` (centres unmarked) [(43), Bridged 2-methyl-4-(6-phenyl-5,6,6a,7,8,9,10,10a-octahydrophenanthridin-2-yl)thiazole] as the molecule, how does the Emax [1] read?
Answer: Its Emax is 64.6%.

Question: And the pEC50 [1]?
Answer: The pEC50 was 6.66.

Question: And the Emax [3]?
Answer: The Emax was 182%.

Question: What about the pEC50 [3] of the same molecule?
Answer: Its pEC50 is 5.41.

Question: Which results are given for `CN(C)S(=O)(=O)c1ccc2c(c1)C1CC=CC1C(c1ccccc1)N2` (centres unmarked) [(49), N,N-dimethyl-4-phenyl-3a,4,5,9b-tetrahydro-1H-cyclopenta[c]quinoline-8-sulfonamide]?
Answer: Emax [1]: < 40%; pEC50 [1]: < 5.00; Emax [3]: 61.8%; pEC50 [3]: 5.98

Question: What does the source list for `CCCCC(=O)Nc1ccc2c(c1)C1C3CCC(C3)C1C(c1ccccc1)N2` (centres unmarked) [Compound (4d), Bridged N-(6-phenyl-5,6,6a,7,8,9,10,10a-octahydrophenanthridin-2-yl)pentanamide]?
Answer: Emax [1]: 92%; pEC50 [1]: 8.16; Emax [3]: < 40%; pEC50 [3]: < 5.00

Question: For `CN(C)S(=O)(=O)c1ccc2c(c1)C1C3CCC(C3)C1C(c1ccccc1)N2` (centres unmarked) [(11), Bridged N,N-dimethyl-6-phenyl-5,6,6a,7,8,9,10,10a-octahydrophenanthridine-2-sulfonamide], which Emax [1] is on record?
Answer: The Emax was 99%.

Question: What about the pEC50 [1] of the same molecule?
Answer: Its pEC50 is 9.01.

Question: What about the Emax [3] of the same molecule?
Answer: Its Emax is < 40%.

Question: And the pEC50 [3]?
Answer: Its pEC50 is < 5.00.

Reference: patent publication US20080214537A1, “BRIDGED PHENANTHRIDINES” (CARA THERAPEUTICS, INC., priority 2007, published 2008)
